Blank lines part the entries; values can stand above or below the compound they belong to.
Assays:
[1] = tested on: MKN-45; test: Antiproliferative activity against human MKN45 cells; type: functional, cell-based
[2] = molecular target: Cytochrome P450 3A4 (Homo sapiens, UniProt P08684); test: Inhibition of CYP3A4; type: ADME
[3] = molecular target: Histone deacetylase 3 (Homo sapiens, UniProt O15379)
[4] = molecular target: T1, Histone deacetylase 1 (Homo sapiens, UniProt Q13547)
[5] = molecular target: T2, Histone deacetylase 8 (Homo sapiens, UniProt Q9BY41)
T2 sequence (Q9BY41 whole entry): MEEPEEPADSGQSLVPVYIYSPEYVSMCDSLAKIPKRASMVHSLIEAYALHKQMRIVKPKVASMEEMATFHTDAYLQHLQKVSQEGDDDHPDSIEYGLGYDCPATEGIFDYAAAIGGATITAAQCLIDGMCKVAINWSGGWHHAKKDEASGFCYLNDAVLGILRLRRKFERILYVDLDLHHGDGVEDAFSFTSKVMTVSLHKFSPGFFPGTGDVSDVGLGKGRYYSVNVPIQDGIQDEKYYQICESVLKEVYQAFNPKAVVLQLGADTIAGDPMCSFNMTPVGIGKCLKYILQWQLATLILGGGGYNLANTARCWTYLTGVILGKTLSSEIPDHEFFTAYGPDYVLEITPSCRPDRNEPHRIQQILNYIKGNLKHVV

[6] = molecular target: T3, Protein deacetylase HDAC6 (Homo sapiens, UniProt Q9UBN7)
T3 sequence (Q9UBN7 whole entry): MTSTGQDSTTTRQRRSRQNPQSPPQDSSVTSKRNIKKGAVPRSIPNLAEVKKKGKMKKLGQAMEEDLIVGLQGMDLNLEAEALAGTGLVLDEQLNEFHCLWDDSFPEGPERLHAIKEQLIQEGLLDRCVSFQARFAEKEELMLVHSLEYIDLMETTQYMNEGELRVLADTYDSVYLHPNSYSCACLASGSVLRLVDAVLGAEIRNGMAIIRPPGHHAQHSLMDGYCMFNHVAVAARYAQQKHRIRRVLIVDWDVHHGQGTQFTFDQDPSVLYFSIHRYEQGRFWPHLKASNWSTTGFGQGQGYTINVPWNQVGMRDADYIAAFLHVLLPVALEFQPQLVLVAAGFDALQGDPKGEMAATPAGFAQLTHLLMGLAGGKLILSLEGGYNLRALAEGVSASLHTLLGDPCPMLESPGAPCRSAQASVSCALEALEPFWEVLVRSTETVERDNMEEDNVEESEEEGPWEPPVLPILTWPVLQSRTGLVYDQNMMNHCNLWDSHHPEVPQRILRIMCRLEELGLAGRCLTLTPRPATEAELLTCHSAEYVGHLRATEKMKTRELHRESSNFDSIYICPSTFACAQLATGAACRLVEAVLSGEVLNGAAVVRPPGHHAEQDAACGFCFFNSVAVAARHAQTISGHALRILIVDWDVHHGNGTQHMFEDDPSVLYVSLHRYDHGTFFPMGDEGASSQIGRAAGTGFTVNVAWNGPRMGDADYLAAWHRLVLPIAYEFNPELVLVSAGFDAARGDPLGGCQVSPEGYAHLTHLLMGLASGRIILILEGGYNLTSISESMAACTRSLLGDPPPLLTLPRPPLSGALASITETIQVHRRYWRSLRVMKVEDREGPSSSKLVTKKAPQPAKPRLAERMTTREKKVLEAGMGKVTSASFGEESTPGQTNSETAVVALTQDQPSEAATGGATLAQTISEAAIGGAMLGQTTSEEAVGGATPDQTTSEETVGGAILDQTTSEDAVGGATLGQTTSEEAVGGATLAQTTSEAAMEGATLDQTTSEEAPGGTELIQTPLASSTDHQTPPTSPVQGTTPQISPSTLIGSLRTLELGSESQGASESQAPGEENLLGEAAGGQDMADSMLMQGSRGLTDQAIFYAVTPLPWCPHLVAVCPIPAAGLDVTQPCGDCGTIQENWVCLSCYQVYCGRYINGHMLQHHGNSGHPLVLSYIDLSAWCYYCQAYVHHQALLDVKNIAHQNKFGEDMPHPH

[7] = tested on: HCT-116; test: Antitumor activity against human HCT116 cells xenografted in ip dosed nude mouse assessed as tumor volume inhibition; type: functional
[8] = molecular target: T1, Histone deacetylase 1; test: Inhibition of HDAC1 from human HeLa cells; type: cell-based
[9] = Metabolic stability in human liver microsomes; type: ADME, Microsome
[10] = molecular target: Histone deacetylase (Homo sapiens) (UniProt Q13547+O15379+Q9UBN7+Q92769+Q9UQL6+Q8WUI4+Q9BY41+Q96DB2+P56524+Q9UKV0+Q969S8); test: Inhibition of HDAC from human HeLa cells at 1000 nM; type: cell-based
[11] = molecular target: T4, Histone deacetylase 4 (Homo sapiens, UniProt P56524)
[12] = molecular target: Histone deacetylase 5 (Homo sapiens, UniProt Q9UQL6)
[13] = molecular target: Histone deacetylase 7 (Homo sapiens, UniProt Q8WUI4)
[14] = molecular target: T4, Histone deacetylase 4; test: Inhibition of HDAC4 at 50 uM
[15] = molecular target: Histone deacetylase 9 (Homo sapiens, UniProt Q9UKV0)
[16] = tested on: SK-BR-3; test: Antiproliferative activity against human SKBR3 cells; type: functional, cell-based
[17] = tested on: MCF7; test: Inhibition of human MCF7 cells; type: functional, cell-based
[18] = tested on: HCT-116; test: Inhibition of human HCT116 cells; type: functional, cell-based
[19] = tested on: A549; test: Antitumor activity against human A549 cells xenografted in nude mouse model at 20 mg/kg, ip; type: functional; conditions: route intraperitoneal, read-out: TGI
[20] = tested on: HCT-116; test: Antitumor activity against human HCT116 cells xenografted in nude mouse model at 20 mg/kg, ip; type: functional; conditions: HCT-116, ip, route intraperitoneal, read-out: TGI
[21] = tested on: SW48; test: Antitumor activity against human SW48 cells xenografted in nude mouse model at 20 mg/kg, ip; type: functional; conditions: route intraperitoneal, read-out: TGI
[22] = tested on: SW-620; test: Inhibition of human SW620 cells; type: functional, cell-based
[23] = Inhibition of human CCD1059SK cells; type: functional, cell-based
[24] = tested on: A549; test: cells; conditions: Homo sapiens
Description: Antiproliferative activity against human A549 cells

[25] = molecular target: Histone deacetylase 1 (Mus musculus, UniProt O09106)
Chain of Histone deacetylase 1 (Mus musculus, UniProt O09106) (O09106 whole entry): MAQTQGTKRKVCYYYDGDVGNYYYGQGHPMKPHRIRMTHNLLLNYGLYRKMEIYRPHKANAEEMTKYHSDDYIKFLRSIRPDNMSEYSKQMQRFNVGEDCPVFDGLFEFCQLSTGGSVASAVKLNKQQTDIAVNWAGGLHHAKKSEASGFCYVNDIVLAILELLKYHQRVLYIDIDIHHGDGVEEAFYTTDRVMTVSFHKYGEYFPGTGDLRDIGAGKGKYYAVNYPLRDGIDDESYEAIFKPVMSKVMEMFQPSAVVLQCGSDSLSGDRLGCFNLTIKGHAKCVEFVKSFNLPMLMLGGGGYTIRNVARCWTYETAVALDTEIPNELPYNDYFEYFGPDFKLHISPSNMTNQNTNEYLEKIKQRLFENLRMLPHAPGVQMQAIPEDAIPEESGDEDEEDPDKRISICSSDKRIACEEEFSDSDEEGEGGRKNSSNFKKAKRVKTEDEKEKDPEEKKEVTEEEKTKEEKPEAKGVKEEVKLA
Description: Inhibition of mouse liver HDAC1

Chain of Histone deacetylase 3 (O15379 whole entry): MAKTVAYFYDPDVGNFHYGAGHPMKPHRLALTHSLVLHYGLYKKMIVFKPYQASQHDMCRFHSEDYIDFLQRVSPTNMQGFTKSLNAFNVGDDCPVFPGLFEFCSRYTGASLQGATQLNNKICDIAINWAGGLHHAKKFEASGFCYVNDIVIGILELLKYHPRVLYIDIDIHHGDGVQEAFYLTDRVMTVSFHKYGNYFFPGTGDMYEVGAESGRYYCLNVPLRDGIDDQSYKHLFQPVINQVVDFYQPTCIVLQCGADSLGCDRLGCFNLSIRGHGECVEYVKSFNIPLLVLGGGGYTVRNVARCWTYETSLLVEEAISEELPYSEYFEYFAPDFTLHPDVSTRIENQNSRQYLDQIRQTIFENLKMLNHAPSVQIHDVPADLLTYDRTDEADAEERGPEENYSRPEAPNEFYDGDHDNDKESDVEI
T1 sequence (Q13547 whole entry): as the sequence (O09106 whole entry) above, with K8R, E399D, D424E counted along it
T4 sequence (P56524 whole entry): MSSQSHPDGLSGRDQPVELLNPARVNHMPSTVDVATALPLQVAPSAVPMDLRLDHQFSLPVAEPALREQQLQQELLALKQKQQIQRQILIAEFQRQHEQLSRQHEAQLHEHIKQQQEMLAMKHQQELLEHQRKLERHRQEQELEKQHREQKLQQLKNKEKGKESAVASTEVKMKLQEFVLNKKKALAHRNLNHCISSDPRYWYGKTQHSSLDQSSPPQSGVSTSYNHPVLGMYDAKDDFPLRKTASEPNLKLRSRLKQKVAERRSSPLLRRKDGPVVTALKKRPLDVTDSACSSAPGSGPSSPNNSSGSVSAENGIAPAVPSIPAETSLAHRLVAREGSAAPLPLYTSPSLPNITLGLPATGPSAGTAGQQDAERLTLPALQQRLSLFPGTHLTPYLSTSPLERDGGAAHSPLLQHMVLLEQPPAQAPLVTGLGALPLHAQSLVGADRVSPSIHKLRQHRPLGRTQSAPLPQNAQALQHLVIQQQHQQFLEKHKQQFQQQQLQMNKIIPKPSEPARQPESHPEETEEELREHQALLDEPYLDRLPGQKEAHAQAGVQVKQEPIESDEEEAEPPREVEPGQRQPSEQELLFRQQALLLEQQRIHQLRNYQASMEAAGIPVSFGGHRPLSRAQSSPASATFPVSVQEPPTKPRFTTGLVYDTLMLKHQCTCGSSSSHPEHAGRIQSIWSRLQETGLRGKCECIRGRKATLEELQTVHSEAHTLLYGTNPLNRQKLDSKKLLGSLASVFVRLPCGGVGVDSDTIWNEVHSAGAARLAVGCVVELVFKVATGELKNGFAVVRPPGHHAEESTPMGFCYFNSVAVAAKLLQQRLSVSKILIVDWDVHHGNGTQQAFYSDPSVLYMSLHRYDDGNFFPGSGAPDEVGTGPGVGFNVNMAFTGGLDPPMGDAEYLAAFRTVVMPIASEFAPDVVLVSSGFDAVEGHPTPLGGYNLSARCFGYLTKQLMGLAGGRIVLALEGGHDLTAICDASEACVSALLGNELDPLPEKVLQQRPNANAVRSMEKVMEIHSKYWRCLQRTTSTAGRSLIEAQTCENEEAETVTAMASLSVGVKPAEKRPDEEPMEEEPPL
Chain of Histone deacetylase 5 (Q9UQL6 whole entry): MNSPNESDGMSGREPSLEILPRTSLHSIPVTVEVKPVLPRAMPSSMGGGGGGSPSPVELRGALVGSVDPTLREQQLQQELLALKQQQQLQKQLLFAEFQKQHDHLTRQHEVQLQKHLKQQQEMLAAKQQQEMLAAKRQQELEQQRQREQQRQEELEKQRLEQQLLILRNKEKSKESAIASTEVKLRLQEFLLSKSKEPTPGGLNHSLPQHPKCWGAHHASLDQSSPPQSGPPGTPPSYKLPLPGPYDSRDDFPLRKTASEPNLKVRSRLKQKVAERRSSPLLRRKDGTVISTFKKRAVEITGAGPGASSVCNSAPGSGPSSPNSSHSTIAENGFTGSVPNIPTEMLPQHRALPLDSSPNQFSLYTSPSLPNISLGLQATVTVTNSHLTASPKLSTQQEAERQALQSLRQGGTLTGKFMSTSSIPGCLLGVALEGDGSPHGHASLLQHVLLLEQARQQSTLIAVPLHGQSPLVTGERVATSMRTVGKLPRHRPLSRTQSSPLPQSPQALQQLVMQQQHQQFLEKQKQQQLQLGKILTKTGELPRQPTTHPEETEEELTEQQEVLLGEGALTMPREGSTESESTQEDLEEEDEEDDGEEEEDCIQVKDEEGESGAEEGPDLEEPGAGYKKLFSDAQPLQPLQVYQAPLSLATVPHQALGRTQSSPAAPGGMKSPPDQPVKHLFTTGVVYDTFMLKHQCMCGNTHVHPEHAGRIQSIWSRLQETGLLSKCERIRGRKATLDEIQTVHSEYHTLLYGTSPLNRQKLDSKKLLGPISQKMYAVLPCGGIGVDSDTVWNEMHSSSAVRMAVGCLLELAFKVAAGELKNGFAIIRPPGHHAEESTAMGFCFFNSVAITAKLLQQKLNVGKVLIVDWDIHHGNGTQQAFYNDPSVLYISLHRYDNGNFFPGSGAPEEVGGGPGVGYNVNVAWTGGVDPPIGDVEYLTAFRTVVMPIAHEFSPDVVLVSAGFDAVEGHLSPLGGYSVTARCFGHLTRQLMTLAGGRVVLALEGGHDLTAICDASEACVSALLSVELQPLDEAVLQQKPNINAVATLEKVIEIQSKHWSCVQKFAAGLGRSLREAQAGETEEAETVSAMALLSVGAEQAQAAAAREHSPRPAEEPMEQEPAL
Chain of Histone deacetylase 7 (Q8WUI4 whole entry): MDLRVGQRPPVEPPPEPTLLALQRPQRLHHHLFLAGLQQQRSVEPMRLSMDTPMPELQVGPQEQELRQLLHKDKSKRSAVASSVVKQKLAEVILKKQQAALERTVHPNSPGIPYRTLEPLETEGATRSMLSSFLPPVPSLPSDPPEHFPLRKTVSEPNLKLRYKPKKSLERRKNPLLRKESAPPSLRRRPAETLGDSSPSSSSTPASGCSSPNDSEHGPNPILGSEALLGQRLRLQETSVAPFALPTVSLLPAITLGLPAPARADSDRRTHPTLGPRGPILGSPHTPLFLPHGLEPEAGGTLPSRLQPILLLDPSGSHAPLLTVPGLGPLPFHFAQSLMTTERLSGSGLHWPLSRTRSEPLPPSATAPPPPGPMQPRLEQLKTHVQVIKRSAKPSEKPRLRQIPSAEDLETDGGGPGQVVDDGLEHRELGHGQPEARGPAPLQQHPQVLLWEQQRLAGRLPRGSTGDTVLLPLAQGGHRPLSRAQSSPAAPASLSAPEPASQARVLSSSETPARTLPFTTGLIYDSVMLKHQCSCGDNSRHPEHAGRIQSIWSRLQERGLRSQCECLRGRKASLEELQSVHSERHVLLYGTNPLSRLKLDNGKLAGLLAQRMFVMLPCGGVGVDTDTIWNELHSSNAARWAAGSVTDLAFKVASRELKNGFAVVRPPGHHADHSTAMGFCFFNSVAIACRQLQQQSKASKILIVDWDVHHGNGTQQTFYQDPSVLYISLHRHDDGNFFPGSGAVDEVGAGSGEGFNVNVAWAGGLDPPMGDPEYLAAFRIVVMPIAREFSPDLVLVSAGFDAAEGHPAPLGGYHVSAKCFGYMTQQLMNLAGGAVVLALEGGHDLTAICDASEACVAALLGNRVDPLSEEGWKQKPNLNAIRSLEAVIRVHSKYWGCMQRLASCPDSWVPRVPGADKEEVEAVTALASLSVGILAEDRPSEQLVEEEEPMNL
Chain of Cytochrome P450 3A4 (P08684 whole entry): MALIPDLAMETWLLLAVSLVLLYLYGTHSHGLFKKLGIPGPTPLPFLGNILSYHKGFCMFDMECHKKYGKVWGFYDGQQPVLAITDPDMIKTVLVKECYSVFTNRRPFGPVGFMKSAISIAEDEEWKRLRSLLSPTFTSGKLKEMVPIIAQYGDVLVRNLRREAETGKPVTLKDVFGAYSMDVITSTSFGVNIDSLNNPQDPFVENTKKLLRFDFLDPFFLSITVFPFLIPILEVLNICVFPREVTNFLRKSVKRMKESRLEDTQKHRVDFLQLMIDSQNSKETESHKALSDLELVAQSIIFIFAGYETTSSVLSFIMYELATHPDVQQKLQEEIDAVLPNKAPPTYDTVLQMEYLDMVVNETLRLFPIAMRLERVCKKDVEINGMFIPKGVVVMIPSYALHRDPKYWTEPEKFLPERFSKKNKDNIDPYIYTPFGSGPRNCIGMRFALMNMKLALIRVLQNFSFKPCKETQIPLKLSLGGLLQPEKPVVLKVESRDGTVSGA

SMILES: O=C(NO)c1ccc(-c2ccn(CCNCc3ccc4c(c3)OCO4)n2)s1
IC50 [1]: 0.63 µM | IC50 [2]: 0.51 µM

SMILES: COc1cc(NCc2ccc(/C=C/C(=O)Nc3cc(-c4cccs4)ccc3N)cc2)cc(OC)c1OC
Inhibition [7]: 78%

SMILES: O=C(/C=C/c1cccc(NS(=O)(=O)Cc2ccccc2)c1)NO
inhibition [10]: 23%

SMILES: CC(=O)Nc1ccc(C(=O)Nc2cc(-c3cccs3)ccc2N)cc1
IC50 [5]: > 20 µM | IC50 [11]: > 20 µM | IC50 [12]: > 20 µM | IC50 [13]: > 20 µM

SMILES: CC(C)[C@H]1NC(=O)[C@@H](C)[C@@H](C/C=C\CCC(=O)O)NC(=O)[C@@H](Cc2ccccc2)NC(=O)[C@@H](C)NC1=O [AZUMAMIDE E]
IC50 [3]: 0.08 µM | inhibition [14]: 30% | IC50 [5]: 3.7 µM | IC50 [6]: 12 µM | IC50 [15]: 28 µM | IC50 [12]: 10 µM | IC50 [13]: 9.7 µM

SMILES: Nc1ccccc1NC(=O)c1ccc(CNC(=O)OCc2cccnc2)cc1 [ENTINOSTAT]
IC50 [16]: 0.87 µM | IC50 [1]: 4.16 µM | IC50 [17]: 4.3 µM | IC50 [18]: 0.5 µM | inhibition in vivo at 20 mg/kg [19]: 46% | inhibition in vivo at 20 mg/kg [20]: 56% | inhibition in vivo at 20 mg/kg [21]: 68% | IC50 [22]: 3.2 µM | IC50 [23]: 65 µM | IC50 [24]: 3.58 µM

Results, then the compound that gave them:

IC50 [3]: 0.0037 µM | IC50 [4]: 0.0018 µM | IC50 [5]: 0.14 µM | IC50 [6]: 0.015 µM
SMILES: O=C(/C=C/c1ccc(CN(CCO)CCc2cc3ccccc3[nH]2)cc1)NO

IC50 [8]: 0.73 µM | microsomal CLint [9]: > 300 µL/min/mg
SMILES: COc1ccc2[nH]c(C)c(CC(=O)N[C@@H](CCCCCC(C)=O)C(=O)NCCc3c(-c4ccccc4)[nH]c4ccccc34)c2c1

IC50 [25]: 0.121 µM
SMILES: CC(C)(c1ccccc1)c1cc(=O)[nH]c(SCCCCCC(=O)NO)n1

From ChEMBL document CHEMBL1142268, “Histone deacetylase inhibitors: from bench to clinic” (J Med Chem, 2008)
